{"source": "patent US8371378B2", "about": "“Method for pre-treatment of subterranean sites adjacent to water injection wells” (E. I. du Pont de Nemours and Company, priority 2010, dated 2013)", "key": {"[1]": {"test": "Titration of sand/amine/brine mixture with 10% acetic acid, amine in solution by GC (Example 5)", "conditions": "core sand, brine #2, 10 wt % acetic acid", "protocol": "(§1) Concentration of amines, in media and water, were analyzed by gas chromatography (GC). An Agilent Model 5890 (Agilent, Wilmington, Del.), GC equipped with a […] and a split/splitless injector, a DB-FFAP column (30 meter length×0.32 millimeter (mm) depth×0.25 micrometer particle size). […] The system was calibrated using a sample of N,N-Dimethyl-1-Dodecaneamine (Aldrich). Helium was used as the carrier gas. A temperature gradient of 50 degrees Celsius (° C.) to 250° C. at 30° C. increase per minute (min) was used. Retention times (in minutes, min) for various chemicals of interest included: N,N-Dimethyl-1-Dodecaneamine (8.08 min); N,N-Dimethyl-1-Tetradecaneamine (8.85 min); N,N-Dimethyl-1-Hexadecane-amine (9.90 min); N,N-Dimethyl-1-Octadecaneamine (10.26 min) and N-Methyl,N-Benzyl)-1-Tetradecaneamine (11.40 min).\nThe same procedure outlined in Example 4 was repeated here to produce the sand/amine mixture. 30.85 grams (gr) of the sand/amine mixture was added to 100 ml of brine #2 (Table 3) to create the sand/amine/brine mixture."}, "[2]": {"test": "Titration of amine coated core sand in brine #2 with 1N HCl, amine in solution by GC (Example 2)", "type": "physicochemical", "conditions": "brine #2, 1N HCl", "protocol": "Helium was used as the carrier gas.\n38 milligrams (mg) of N N-Dimethyl-1-Dodecanamine (hereafter referred to as “the amine”) was added to 10.210 gr of Pentane. This solution was added to 10.1845 gr of specific sand layers (Oa and Ob) obtained from the Schrader Bluff formation of the Milne Point Unit of the Alaskan North slope. The oil content of the sand was first removed using a mixture of methanol and toluene (50/50, volume/volume) as solvent washes. The solvent mixture was subsequently evaporated off the core sand to produce clean, dry, flowable core sand. This sand was mixed with the amine and pentane solution to produce a slurry. This slurry was thoroughly mixed and the pentane was evaporated off leaving the amine on the sand (hereafter referred to as sand/amine mixture). 100 ml of brine #2 (Table 3) was added to the sand/amine mixture to create the sand/amine/brine mixture. […] The fact that the amine was not detected underlined its strong binding to the sand particles. […] The data underlines the remarkable efficiency of an acid at ionizing and removing the amine from the sand."}, "[3]": {"test": "Titration of sand/amine/brine mixture with 10% nitric acid, amine in solution by GC (Example 4)", "conditions": "core sand, brine #2, 10 wt % nitric acid", "protocol": "as §1\nThe procedure outlined in Example 2 was used to produce the sand/amine mixture except that 519 mg of the amine, 10 gr of Pentane. and 60.062 gr of sand from the Oa and Ob layers were used. 29.065 gr of this sand/amine mixture was added to 100 ml of brine #2 (Table 3) to create the sand/amine/brine mixture. […] 0.1 ml of 10 weight percent (wt %) nitric acid in water was added to this solution, and the pH and the amine concentration were measured again."}}}
{"smiles": "CCCCCCCCCCCCN(C)C", "note": "[N-N-dimethyl-1-dodeanamine, N N-Dimethyl-1-Dodecanamine]", "values": [{"measurement": "pH of complete ionization and solubilization in the water of the amine", "setting": "[1]", "result": "< 6.7", "unit": "pH"}, {"measurement": "pH of complete ionization and solubilization of the amine in the water", "setting": "[2]", "result": "< 6.0", "unit": "pH"}, {"measurement": "pH of complete ionization and solubilization in the water of the amine", "setting": "[3]", "result": "< 6.7", "unit": "pH"}]}
